Results as given in US20110021618A1, “METHODS OF TREATING FIBROTIC DISORDERS” (PALOMA PHARMACEUTICALS, INC., priority 2008, published 2011).

Columns and labels:
SM-α-actin = assay: TGF-β1 stimulated SM-α-actin in human lung fibroblasts, Western Blot; format: cell-based; conditions: 30 μM; 30 minutes pre-treatment before TGF-β1
Excerpt: (§1) Transforming growth factor-beta one (TGF-β1) and alpha-Thrombin (α-Thrombin) are known to be involved in the pathogenesis of fibrotic disease. In an in vitro model of pulmonary fibrosis, TGF-β1 stimulates myofibroblast differentiation of human lung fibroblasts characterized by expression of contractile smooth muscle (SM)-specific proteins such as SM-alpha-actin (SM-α-actin). TGF-β1 also stimulates SM-α-actin expression in human lung fibroblasts which parallels a profound induction of serum response factor (SRF) expression and activity. Increased contractile gene expression with SM-α-actin as marker, increased SRF, increased connective tissue growth factor (CTGF) and increased matrix genes (e.g. fibronectin) are examples of effects observed during myofibroblast differentiation. Myofibroblast differentiation is induced by stimulation with TGF-β1 thereby increasing markers of differentiation.
(§2) Human lung fibroblasts were pre-treated with Palomid 529 for 30 minutes prior to TGF-β1 stimulation. Western Blot with antibodies against CTGF, SRG, SM-α-actin and β-actin is shown.

CTGF = assay: TGF-β1 stimulated CTGF in human lung fibroblasts, Western Blot; format: cell-based; conditions: 30 μM; 30 minutes pre-treatment before TGF-β1
Excerpt: as §1, §2

p-AKT(S473) = assay: AKT phosphorylation in human lung fibroblasts, Western Blot; format: cell-based; conditions: 30 μM
Experimental: Human lung fibroblasts are stimulated for one hour with either TGF-β1 or α-Thrombin in presence of 30 μM Palomid 529 to effect activation of signal transduction proteins. p-AKT(S473) and AKT levels are measured by Western Blot. Scanning software, Scion Image (Scion Corporation, Frederick, Md.), was used to digitize bands on Western Blot for numeric calculation of percent inhibition described in text.

[1] = tested on: detached retina (Müller cells, microglia and macrophages, photoreceptors); assay: Experimental retinal detachment, single intravitreal injection (Example 1); format: in vivo, rabbit
[2] = Half-life in the vitreous; format: in vivo
[3] = tested on: detached retina (Müller cells); assay: Experimental retinal detachment, Müller cell proliferation and glial scar formation (Example 2); format: in vivo, rabbit; conditions: 600 micrograms intravitreally in PBS, versus PBS
Experimental: Methods: Experimental retinal detachments were made in the right eyes of pigmented rabbits. Six hundred micrograms of Palomid 529 in 50 microliters of PBS, or PBS alone was injected intravitreally on day 0, immediately after retinal detachment. Each rabbit received 10 micrograms of BrdU intravitreally on day 3. Animals were sacrificed on day 3 or 7, at which time the tissue was fixed in paraformaldahyde, embedded in agarose and sectioned at 100 microns. The sections were labeled with anti-BrdU, to detect dividing cells, and anti-vimentin, to identify Müller cells. Labeling was imaged on an Olympus Fluoview confocal microscope, and the resultant digital images were analyzed to determine the number of proliferating cells as well as the number and length of subretinal glial scars.

SRF = assay: TGF-β1 stimulated SRF in human lung fibroblasts, Western Blot; format: cell-based; conditions: 30 μM; 30 minutes pre-treatment before TGF-β1
Excerpt: as §1, §2

[4] = tested on: epiretinal membrane formation; conditions: human patients; cited from earlier work
[5] = 7-day detachment, versus control

Row | Structure (SMILES) | inhibition of TGF-β1 stimulated increase of SM-α-actin (SM-α-actin) [%] | inhibition of TGF-β1 stimulated increase of CTGF (CTGF) [%] | inhibition of basal level of AKT phosphorylation (p-AKT(S473); basal, stated with the TGF-β1 result) [%] | decrease of AKT phosphorylation in the absence of α-Thrombin (basal level) (p-AKT(S473); basal, stated with the α-Thrombin result) [%] | inhibition of phosphorylation of AKT stimulated by TGF-β1 (p-AKT(S473); one hour TGF-β1) [%] | decrease of AKT phosphorylation in the presence of α-Thrombin (p-AKT(S473); one hour α-Thrombin) [%] | average number of anti-BrdU labeled Müller cell nuclei ([1]; 3-day detachment, 600 μg intravitreally, vehicle control 10.79) | reduction of average number of subretinal scars [1, 5] | reduction of length of subretinal scars [1, 5] | average number of subretinal scars ([1]; 7-day detachment, 600 μg intravitreally, control 2.03) | total number of isolectin B4 labeled cells (microglia and macrophages) ([1]; 7-day detachment, 600 μg intravitreally, control 43.9) | average number of anti-BrdU labeled Müller cell nuclei ([1]; 7-day detachment, 600 μg intravitreally, vehicle control 9.83) | average thickness of the ONL ([1]; 7 days of detachment, 600 μg intravitreally, normal retina 34.45 μm, vehicle 19.40 μm) [μm] | average length of subretinal scars ([1]; day 7, 600 μg intravitreally, control 131.28 μm) [μm] | expected half-life in the vitreous [2] | number of BrdU labeled Müller cells per millimeter ([3]; 3 and 7 day time points) | number and size of sub-retinal scars ([3]; day 7) | inhibition of TGF-β1 stimulated increase of SRF (SRF) [%] | reducing epiretinal membrane formation [4]
1 | COc1ccc(COc2cc3oc(=O)c4cc(C(C)O)ccc4c3cc2OC)cc1 (stereo not shown) [Palomid 529] | 65 | 18 | 13 | 15 | 27 | 15 | 1.19 /mm of retina | approximately 4 fold | more than 20 fold | 0.39 /mm of retina | 24.5 /mm retina | 1.49 /mm of retina | 27.21 | 11.01 | at least 3 months | statistically significant decrease | significant decrease | 29 | 
2 | O=c1[nH]cc(F)c(=O)[nH]1 [5-fluorouracil] |  |  |  |  |  |  |  |  |  |  |  |  |  |  |  |  |  |  | not effective
